{
  "source": "ChEMBL document CHEMBL5120897",
  "about": "“Anti-HIV Tigliane-Type Diterpenoids from the Aerial Parts of Wikstroemia lichiangensis” (J Nat Prod, 2022)",
  "key": {"MT4": {"test_system": "MT4", "experiment": "Cytotoxicity against human MT4 cells assessed as reduction in cell viability by CellTiter-Glo luminescent cell viability assay", "assay_type": "functional"}, "[1]": {"test_system": "Human immunodeficiency virus 1", "experiment": "Anti-HIV activity against HIV-1 NL4-3 Nanoluc-sec virus infected in human MT4 cells assessed as luciferase activity and measured 3 days post-infection by Nano-Glo luciferase assay", "assay_type": "functional, organism-based", "settings": "Human immunodeficiency virus 1, NL4-3, MT4, 72 h"}},
  "note": "pIC50: −log10 of the molar value.",
  "data": [
    {"smiles": "CCCCCC/C=C/CC(=O)O[C@@]12[C@H](OC(=O)c3ccccc3)[C@@H](C)[C@@]3(O)[C@@H](C=C(CO)C[C@]4(O)C(=O)C(C)=C[C@@H]34)[C@@H]1C2(C)C", "values": [
      {"measurement": "CC50", "setting": "MT4", "result": "> 7000", "unit": "nM"},
      {"measurement": "pIC50", "setting": "[1]", "result": 8.96}
    ]},
    {"smiles": "CCCCCCCCCC(=O)O[C@@]12[C@H](OC(=O)c3ccccc3)[C@@H](C)[C@]3(O)[C@@H]4C=C(C)C(=O)[C@@]4(O)[C@H](O)C(CO)=C[C@H]3[C@@H]1C2(C)C", "values": [
      {"measurement": "CC50", "setting": "MT4", "result": "> 7000", "unit": "nM"},
      {"measurement": "pIC50", "setting": "[1]", "result": 8.82}
    ]},
    {"smiles": "CCCC/C=C/C=C/CC(=O)O[C@@]12[C@H](OC(=O)c3ccccc3)[C@@H](C)[C@]3(O)[C@@H]4C=C(C)C(=O)[C@@]4(O)[C@H](O)C(CO)=C[C@H]3[C@@H]1C2(C)C", "values": [
      {"measurement": "CC50", "setting": "MT4", "result": "> 7000", "unit": "nM"},
      {"measurement": "pIC50", "setting": "[1]", "result": 7.18}
    ]},
    {"smiles": "CCCC/C=C/C=C/CC(=O)O[C@@]12[C@H](OC(=O)c3ccccc3)[C@@H](C)[C@@]3(O)[C@@H](C=C(CO)C[C@]4(O)C(=O)C(C)=C[C@@H]34)[C@@H]1C2(C)C", "values": [
      {"measurement": "CC50", "setting": "MT4", "result": "> 7000", "unit": "nM"},
      {"measurement": "pIC50", "setting": "[1]", "result": 8.52}
    ]},
    {"smiles": "C=C(C)[C@]12C[C@@H](COC(=O)c3ccccc3)[C@@]34OC5(O[C@@H]1[C@@H]3[C@@H]1O[C@]1(CO)[C@@H](O)[C@@]1(O)[C@H]4[C@H]([C@H](C)[C@@H]1OC(=O)c1ccccc1)[C@H](C)CCCCCC[C@H]5O)O2", "values": [
      {"measurement": "CC50", "setting": "MT4", "result": "> 7000", "unit": "nM"},
      {"measurement": "pIC50", "setting": "[1]", "result": 9.82}
    ]},
    {"smiles": "CCCCCC/C=C/CC(=O)O[C@@]12[C@H](OC(=O)c3ccccc3)[C@@H](C)[C@]3(O)[C@@H]4C=C(C)C(=O)[C@@]4(O)[C@H](O)C(CO)=C[C@H]3[C@@H]1C2(C)C", "values": [
      {"measurement": "CC50", "setting": "MT4", "result": "> 7000", "unit": "nM"},
      {"measurement": "pIC50", "setting": "[1]", "result": 8.82}
    ]}
  ]
}
